Experimental data reported in patent publication US20200085776A1, “Methods of Reducing C-Reactive Protein and/or Treating Cardiovascular Disease” (CARDAX, INC., priority 2018, published 2020).

Legend:
[1] = tested on: Cholesterol; test: Fasting lipid panel: total cholesterol, CHASE clinical study; type: in vivo, human; conditions: for Cholesterol V2 to V6 % Change Max / Cholesterol V2 to V6 % Change Mean (SD) / Cholesterol V2 to V6 % Change Median / Cholesterol V2 to V6 % Change Min / Cholesterol V2 to V6 Change Max / Cholesterol V2 to V6 Change Mean (SD) / Cholesterol V2 to V6 Change Median / Cholesterol V2 to V6 Change Min: baseline to Week 12
Source text: (§1) Blood samples shall be obtained under fasted conditions for a lipid panel at V2, V4, V6, V7, and V8. This panel shall include total cholesterol, LDL-C, VLDL-C, HDL-C, and triglycerides. A minimum eight-hour fast (water allowed) is required for the lipid panel.
(§2) Fasting lipid profiles and fasting chemistry panels may be obtained within the visit time window on a day separate from the scheduled office visit, within two days before or after the other study procedures. A minimum of eight hours fasted (water allowed ad lib) is required.
(§3) Table 7M provides the changes in lipid levels (mg/dL) (V2 to V6) for subjects.

[2] = tested on: LDL; test: Fasting lipid panel: LDL, CHASE clinical study; type: in vivo, human; conditions: for LDL V2 to V6 % Change Max / LDL V2 to V6 % Change Mean (SD) / LDL V2 to V6 % Change Median / LDL V2 to V6 % Change Min / LDL V2 to V6 Change Max / LDL V2 to V6 Change Mean (SD) / LDL V2 to V6 Change Median / LDL V2 to V6 Change Min: baseline to Week 12
Source text: as §1, §2, §3

[3] = Group X 12 mg BID, V2 baseline pre-dose, all subjects
[4] = Group X 12 mg BID, V2 baseline pre-dose, subjects with hyperlipidemia
[5] = Group X 12 mg BID, V6 Week 12, all subjects
[6] = Group X 12 mg BID, V6 Week 12, subjects with hyperlipidemia
[7] = Group X 12 mg BID, all subjects
[8] = Group X 12 mg BID, subjects with hyperlipidemia
[9] = Group Z 48 mg BID, V2 baseline pre-dose, all subjects
[10] = Group Z 48 mg BID, V2 baseline pre-dose, subjects with hyperlipidemia
[11] = Group Z 48 mg BID, V6 Week 12, all subjects
[12] = Group Z 48 mg BID, V6 Week 12, subjects with hyperlipidemia
[13] = Group Z 48 mg BID, all subjects
[14] = Group Z 48 mg BID, subjects with hyperlipidemia

Structure (SMILES): CC1=C(/C=C/C(C)=C/C=C/C(C)=C/C=C/C=C(C)/C=C/C=C(C)/C=C/C2=C(C)C(=O)C(O)CC2(C)C)C(C)(C)CC(O)C1=O (centres unmarked) [Astaxanthin, astaxanthin]
- Cholesterol Max [1, 3]: 342.0 mg/dL
- Cholesterol Mean (SD) [1, 3]: 192.0 (65.49) mg/dL
- Cholesterol Median [1, 3]: 180.0 mg/dL
- Cholesterol Min [1, 3]: 113. mg/dL
- Cholesterol Max [1, 4]: 342.0 mg/dL
- Cholesterol Mean (SD) [1, 4]: 184.5 (73.91) mg/dL
- Cholesterol Median [1, 4]: 164.0 mg/dL
- Cholesterol Min [1, 4]: 113.0 mg/dL
- Cholesterol Max [1, 5]: 339.0 mg/dL
- Cholesterol Mean (SD) [1, 5]: 182.6 (70.21) mg/dL
- Cholesterol Median [1, 5]: 163.0 mg/dL
- Cholesterol Min [1, 5]: 117.0 mg/dL
- Cholesterol Max [1, 6]: 339.0 mg/dL
- Cholesterol Mean (SD) [1, 6]: 170.3 (74.95) mg/dL
- Cholesterol Median [1, 6]: 137.5 mg/dL
- Cholesterol Min [1, 6]: 117.0 mg/dL
- Cholesterol V2 to V6 % Change Max [1, 7]: 6.67%
- Cholesterol V2 to V6 % Change Mean (SD) [1, 7]: −5.34 (10.55) %
- Cholesterol V2 to V6 % Change Median [1, 7]: −4.90%
- Cholesterol V2 to V6 % Change Min [1, 7]: −25.0%
- Cholesterol V2 to V6 Change Max [1, 7]: 17.00 mg/dL
- Cholesterol V2 to V6 Change Mean (SD) [1, 7]: −9.45 (18.08) mg/dL
- Cholesterol V2 to V6 Change Median [1, 7]: -7.00 mg/dL
- Cholesterol V2 to V6 Change Min [1, 7]: -39.0 mg/dL
- Cholesterol V2 to V6 % Change Max [1, 8]: 6.20%
- Cholesterol V2 to V6 % Change Mean (SD) [1, 8]: −7.65 (11.10) %
- Cholesterol V2 to V6 % Change Median [1, 8]: −6.92%
- Cholesterol V2 to V6 % Change Min [1, 8]: −25.0%
- Cholesterol V2 to V6 Change Max [1, 8]: 8.00 mg/dL
- Cholesterol V2 to V6 Change Mean (SD) [1, 8]: −14.3 (17.60) mg/dL
- Cholesterol V2 to V6 Change Median [1, 8]: -14.0 mg/dL
- Cholesterol V2 to V6 Change Min [1, 8]: -39.0 mg/dL
- Cholesterol Max [1, 9]: 316.0 mg/dL
- Cholesterol Mean (SD) [1, 9]: 195.1 (57.82) mg/dL
- Cholesterol Median [1, 9]: 190.0 mg/dL
- Cholesterol Min [1, 9]: 121.0 mg/dL
- Cholesterol Max [1, 10]: 316.0 mg/dL
- Cholesterol Mean (SD) [1, 10]: 189.7 (58.32) mg/dL
- Cholesterol Median [1, 10]: 173.0 mg/dL
- Cholesterol Min [1, 10]: 121.0 mg/dL
- Cholesterol Max [1, 11]: 284.0 mg/dL
- Cholesterol Mean (SD) [1, 11]: 169.7 (45.52) mg/dL
- Cholesterol Median [1, 11]: 160.5 mg/dL
- Cholesterol Min [1, 11]: 104.0 mg/dL
- Cholesterol Max [1, 12]: 284.0 mg/dL
- Cholesterol Mean (SD) [1, 12]: 161.9 (46.52) mg/dL
- Cholesterol Median [1, 12]: 151.0 mg/dL
- Cholesterol Min [1, 12]: 104.0 mg/dL
- Cholesterol V2 to V6 % Change Max [1, 13]: 15.86%
- Cholesterol V2 to V6 % Change Mean (SD) [1, 13]: −8.52 (14.73) %
- Cholesterol V2 to V6 % Change Median [1, 13]: −8.29%
- Cholesterol V2 to V6 % Change Min [1, 13]: −38.0%
- Cholesterol V2 to V6 Change Max [1, 13]: 32.00 mg/dL
- Cholesterol V2 to V6 Change Mean (SD) [1, 13]: −18.6 (31.99) mg/dL
- Cholesterol V2 to V6 Change Median [1, 13]: -13.5 mg/dL
- Cholesterol V2 to V6 Change Min [1, 13]: -92.0 mg/dL
- Cholesterol V2 to V6 % Change Max [1, 14]: 15.86%
- Cholesterol V2 to V6 % Change Mean (SD) [1, 14]: −9.11 (16.06) %
- Cholesterol V2 to V6 % Change Median [1, 14]: −8.48%
- Cholesterol V2 to V6 % Change Min [1, 14]: −38.0%
- Cholesterol V2 to V6 Change Max [1, 14]: 32.00 mg/dL
- Cholesterol V2 to V6 Change Mean (SD) [1, 14]: −18.8 (33.97) mg/dL
- Cholesterol V2 to V6 Change Median [1, 14]: -13.5 mg/dL
- Cholesterol V2 to V6 Change Min [1, 14]: -92.0 mg/dL
- LDL Max [2, 3]: 220.0 mg/dL
- LDL Mean (SD) [2, 3]: 111.9 (61.26) mg/dL
- LDL Median [2, 3]: 112.0 mg/dL
- LDL Min [2, 3]: 37.00 mg/dL
- LDL Max [2, 4]: 220.0 mg/dL
- LDL Mean (SD) [2, 4]: 99.00 (66.54) mg/dL
- LDL Median [2, 4]: 73.00 mg/dL
- LDL Min [2, 4]: 37.00 mg/dL
- LDL Max [2, 5]: 236.0 mg/dL
- LDL Mean (SD) [2, 5]: 109.6 (67.65) mg/dL
- LDL Median [2, 5]: 102.0 mg/dL
- LDL Min [2, 5]: 40.00 mg/dL
- LDL Max [2, 6]: 236.0 mg/dL
- LDL Mean (SD) [2, 6]: 94.57 (70.92) mg/dL
- LDL Median [2, 6]: 60.00 mg/dL
- LDL Min [2, 6]: 40.00 mg/dL
- LDL V2 to V6 % Change Max [2, 7]: 21.62%
- LDL V2 to V6 % Change Mean (SD) [2, 7]: −3.46 (13.64) %
- LDL V2 to V6 % Change Median [2, 7]: −7.02%
- LDL V2 to V6 % Change Min [2, 7]: −21.6%
- LDL V2 to V6 Change Max [2, 7]: 17.00 mg/dL
- LDL V2 to V6 Change Mean (SD) [2, 7]: −2.30 (12.98) mg/dL
- LDL V2 to V6 Change Median [2, 7]: -6.50 mg/dL
- LDL V2 to V6 Change Min [2, 7]: -18.0 mg/dL
- LDL V2 to V6 % Change Max [2, 8]: 21.62%
- LDL V2 to V6 % Change Mean (SD) [2, 8]: −5.19 (15.13) %
- LDL V2 to V6 % Change Median [2, 8]: −10.2%
- LDL V2 to V6 % Change Min [2, 8]: −21.6%
- LDL V2 to V6 Change Max [2, 8]: 16.00 mg/dL
- LDL V2 to V6 Change Mean (SD) [2, 8]: −4.43 (12.39) mg/dL
- LDL V2 to V6 Change Median [2, 8]: -11.0 mg/dL
- LDL V2 to V6 Change Min [2, 8]: -18.0 mg/dL
- LDL Max [2, 9]: 206.0 mg/dL
- LDL Mean (SD) [2, 9]: 99.13 (46.59) mg/dL
- LDL Median [2, 9]: 84.00 mg/dL
- LDL Min [2, 9]: 34.00 mg/dL
- LDL Max [2, 10]: 166.0 mg/dL
- LDL Mean (SD) [2, 10]: 89.33 (40.83) mg/dL
- LDL Median [2, 10]: 75.50 mg/dL
- LDL Min [2, 10]: 34.00 mg/dL
- LDL Max [2, 11]: 176.0 mg/dL
- LDL Mean (SD) [2, 11]: 90.31 (37.82) mg/dL
- LDL Median [2, 11]: 81.00 mg/dL
- LDL Min [2, 11]: 49.00 mg/dL
- LDL Max [2, 12]: 176.0 mg/dL
- LDL Mean (SD) [2, 12]: 82.42 (37.25) mg/dL
- LDL Median [2, 12]: 70.00 mg/dL
- LDL Min [2, 12]: 49.00 mg/dL
- LDL V2 to V6 % Change Max [2, 13]: 15.71%
- LDL V2 to V6 % Change Mean (SD) [2, 13]: −14.5 (17.99) %
- LDL V2 to V6 % Change Median [2, 13]: −12.0%
- LDL V2 to V6 % Change Min [2, 13]: −50.0%
- LDL V2 to V6 Change Max [2, 13]: 11.00 mg/dL
- LDL V2 to V6 Change Mean (SD) [2, 13]: −18.9 (24.97) mg/dL
- LDL V2 to V6 Change Median [2, 13]: -11.0 mg/dL
- LDL V2 to V6 Change Min [2, 13]: -83.0 mg/dL
- LDL V2 to V6 % Change Max [2, 14]: 15.00%
- LDL V2 to V6 % Change Mean (SD) [2, 14]: −17.4 (18.43) %
- LDL V2 to V6 % Change Median [2, 14]: −12.5%
- LDL V2 to V6 % Change Min [2, 14]: −50.0%
- LDL V2 to V6 Change Max [2, 14]: 9.00 mg/dL
- LDL V2 to V6 Change Mean (SD) [2, 14]: −20.5 (26.25) mg/dL
- LDL V2 to V6 Change Median [2, 14]: -11.0 mg/dL
- LDL V2 to V6 Change Min [2, 14]: -83.0 mg/dL
